Assay [1] concerns the target T1, Cysteinyl leukotriene receptor 1 (Cavia porcellus) (UniProt Q2NNR5).
T1 sequence (whole entry): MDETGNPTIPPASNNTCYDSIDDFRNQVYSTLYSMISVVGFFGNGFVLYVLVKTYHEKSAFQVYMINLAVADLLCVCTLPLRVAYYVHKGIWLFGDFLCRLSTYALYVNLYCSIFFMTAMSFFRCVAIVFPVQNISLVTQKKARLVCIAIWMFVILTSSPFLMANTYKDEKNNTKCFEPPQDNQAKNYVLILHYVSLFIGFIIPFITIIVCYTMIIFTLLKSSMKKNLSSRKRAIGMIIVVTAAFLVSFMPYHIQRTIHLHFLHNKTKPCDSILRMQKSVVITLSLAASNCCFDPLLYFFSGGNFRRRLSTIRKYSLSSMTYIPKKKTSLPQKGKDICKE
Description: Dissociation constant for leukotriene antagonist (compound) on LTE4 receptor in guinea pig ileum was determined. It is filed as functional, tissue-based.

Assay [2] deals with T1, Cysteinyl leukotriene receptor 1 (Cavia porcellus). The experiment in a line: Dissociation constant for leukotriene antagonist (compound) on Cysteinyl leukotriene D4 receptor in guinea pig ileum was determined. Type of assay: functional, tissue-based.

Regarding `CCCc1c(OCCCCc2nnn[nH]2)ccc(C(C)=O)c1O`, the pKB (usually the KB on a negative log10 scale, so that one unit is a factor of ten) was 7.21 in assay [1] and 6.93 in assay [2].
On the same counts, the results for `CCCc1c(CCCCc2nnn[nH]2)ccc(C(C)=O)c1O` are 6.67 and 6.25.
In the same order, the values of `CCCc1c(CCCCCc2nnn[nH]2)ccc(C(C)=O)c1O` are 7.5 and 7.08.
In the same order, the values of `CCCc1c(OCCCc2nnn[nH]2)ccc(C(C)=O)c1O` are 5.64 and 5.47.
